Key:
[1] = biological target: MMP-12 (Homo sapiens, UniProt P39900); assay: in vitro inhibitory activity on MMP-12 (proteolysis of FP-1 peptide substrate); format: biochemical; conditions: FP-1 substrate 10 μM, 20 minutes at room temperature
Experimental: in vitro Evaluation of the Inhibitory Activity of the Compounds of the Invention on MMP-12:
The inhibitory activity of the compounds of formula (I) on metalloprotease-12 is evaluated by testing the capacity of the compounds of the invention to inhibit the proteolysis of a peptide that is an MMP-12 substrate.
The substrate peptide used (fluorigenic peptide-1: FP-1) in the test has the following sequence: Mca-Pro-Leu-Gly-Leu-Dap(Dnp)-Ala-Arg-NH2.
The inhibitory activity of a compound of formula (I) is expressed as the IC50 value, which represents the concentration of inhibitor for which a 50% inhibition of the metalloprotease is observed.
The reaction starts with the sequential addition of 41 μl of FP-1 substrate (final concentration of 10 μM) to a buffer solution of 50 mM of Tris-HCl and 10 mM of CaCl2, and containing 5 mM of hydroxamic acid and 5 μl of the enzyme diluted in a 0.005% Brij-35 buffer solution. The microplates are incubated for 20 minutes at room temperature. The compounds of the invention are tested at concentrations ranging from 0.3 to 30 μM. The measurement of the amount of proteolysis of the peptide substrate is monitored by means of a measurement of absorbance at 405 nm using a microplate spectrophotometer, at room temperature. The IC50 values are calculated from curves in which the percentage of the catalytic activity relative to the control is represented on the […] and the inhibitor concentration is represented on the y-axis.

[2] = biological target: MMP-13 (Homo sapiens, UniProt P45452); assay: MMP-12 inhibition test adapted to MMP-13; format: biochemical; conditions: test for MMP-12 adapted to MMP-13
Experimental: The reaction starts with the sequential addition of 41 μl of FP-1 substrate (final concentration of 10 μM) to a buffer solution of 50 mM of Tris-HCl and 10 mM of CaCl2, and containing 5 mM of hydroxamic acid and 5 μl of the enzyme diluted in a 0.005% Brij-35 buffer solution. The microplates are incubated for 20 minutes at room temperature. The compounds of the invention are tested at concentrations ranging from 0.3 to 30 μM. The measurement of the amount of proteolysis of the peptide substrate is monitored by means of a measurement of absorbance at 405 nm using a microplate spectrophotometer, at room temperature. The IC50 values are calculated from curves in which the percentage of the catalytic activity relative to the control is represented on the x-axis and the inhibitor concentration is represented on the y-axis.
The test described above for the inhibition of MMP-12 is adapted and used to determine the capacity of the compounds of formula (I) to inhibit the metalloproteases MMP-1, MMP-2, MMP-3, MMP-7, MMP-9, MMP-13 and MMP-14.

Chain of MMP-12 (P39900 106-470): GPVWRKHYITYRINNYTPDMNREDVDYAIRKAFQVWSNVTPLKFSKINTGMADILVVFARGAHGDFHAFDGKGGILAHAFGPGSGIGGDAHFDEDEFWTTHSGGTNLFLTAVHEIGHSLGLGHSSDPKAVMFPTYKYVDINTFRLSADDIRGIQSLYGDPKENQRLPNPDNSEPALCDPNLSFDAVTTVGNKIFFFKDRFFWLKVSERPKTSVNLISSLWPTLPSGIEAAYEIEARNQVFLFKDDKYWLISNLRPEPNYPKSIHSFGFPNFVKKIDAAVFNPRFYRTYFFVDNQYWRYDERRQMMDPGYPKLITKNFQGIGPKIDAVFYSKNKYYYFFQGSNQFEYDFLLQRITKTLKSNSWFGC

Structure (SMILES)	IC50 [1] [µM]	IC50 [2] [µM]
O=C(O)C[C@H](Cc1ccccc1)NC(=O)c1cc(-c2ccc(OC(F)(F)F)cc2)cs1 [Example 12, (3S)-3-{[4-(4-Trifluoromethoxyphenyl)thien-2-yl]carboxamido)-4-phenylbutanoic acid]	0.53	8.3
O=C(N[C@H](Cc1ccccc1)C(=O)O)c1cc(-c2ccc(OC(F)(F)F)cc2)cs1 [Example 8, (2R)-{[4-(4-Trifluoromethoxyphenyl)thien-2-yl]carboxamido}(phenyl)-propanoic acid]	0.18	2.2
O=C(N[C@H](C(=O)O)c1ccccc1)c1cc(-c2ccc(C3CCCCC3)cc2)cs1 [Example 16, (2S)-{[4-(4-cyclohexylphenyl)thien-2-yl]carboxamido}(phenyl)acetic acid]	0.54	6.5
CC(=O)c1ccc(-c2ccc(-c3csc(C(=O)N[C@H](C(=O)O)c4ccccc4)c3)cc2)cc1 [Example 18, (2S)4-[({4-[4-(4-Acetylphenyl)phenyl]thien-2-yl}carbonyl)amino]-(phenyl)acetic acid]	0.04	0.12
O=C(O)CC(NC(=O)c1cc(-c2ccc(OC(F)(F)F)cc2)cs1)c1ccccc1 (racemic) [Example 6, {1[(4-Trifluoromethoxyphenyl)thien-2-yl]carboxamido}(phenyl)-propanoic acid]	0.42	3.6
O=C(N[C@@H](C(=O)O)c1ccccc1)c1cc(-c2ccc(OC(F)(F)F)cc2)cs1 [Example 4, (2R)-{[4-(4-Trifluoromethoxyphenyl)thien-2-yl]carboxamido}-(phenyl)acetic acid]	0.47	5.6
CC(=O)c1ccc(-c2ccc(-c3csc(C(=O)N[C@H](CC(=O)O)c4ccccc4)c3)cc2)cc1 [Example 20]	0.028	0.069
O=C(N[C@H](C(=O)O)c1ccccc1)c1cc(-c2ccc(OC(F)(F)F)cc2)cs1 [Example 2]	0.38	4.5
NC(=O)C[C@@H](NC(=O)c1cc(-c2ccc(OC(F)(F)F)cc2)cs1)c1ccccc1 [Example 9]	0.077	0.96

Reference: patent publication US20050014816A1, “Thiophene amino acid derivatives, process for preparing them and pharmaceutical compositions containing them” (Pfizer Inc, priority 2003, published 2005)
